From patent US6949558B2, “Enhancement of taxane-based chemotherapy by a CDK1 antagonist” (Yale University, priority 2001, dated 2005)
Numbered stars: 1 amine (or outer) side, 2 acyl side, 3 side chain; on linkers, the order of the positions; unused ones are H or OH. Bridge positions count the residues as written; N and C are the ends. Square brackets hold non-standard residues; d marks the D form. Peptide text beside a SMILES is read from it. I, II: the chains in the order shown. * marks the point of attachment. Actinocin(9to1) = Cc1c2oc3c(C)ccc(C(=O)[*:1])c3nc-2c(C(=O)[*:2])c(N)c1=O; NMeV = CN[C@H](C(=O)O)C(C)C; Cbz = O=C(OCc1ccccc1)*; Sar = CNCC(=O)O; CH2F = FC*

Columns and labels:
Type in all cases: cell-based, human
HeLa cells = test: Apoptosis by DNA content analysis and flow cytometry in HeLa cells
[1] = system: survivin expression in MCF-7 cells; test: Survivin expression by Western blotting in MCF-7 cells; settings: for effect on the increase in survivin expression mediated by adriamycin, taxol or 50 J/m^2 UVB: preincubation with cycloheximide 2 mg/ml or actinomycin D 1 μg/ml
Method: (§1) Cell Cultures, Proteins and Antibodies: Breast carcinoma MCF-7 and cervical carcinoma HeLa cells (American Type Culture Collection, Manassas, Va.) were maintained in culture according to the manufacturer's specifications. For treatment with genotoxic agents, HeLa or MCF-7 cells were incubated with vehicle (DMSO) or taxol (2 μM, Sigma Chemical Co., St. Louis, Mo.), adriamycin (100 nM, Sigma), cis-platin (3 μM, Sigma) or subjected to ultraviolet B (UVB) irradiation at 50 or 300 J/m^2. In some experiments, HeLa or MCF-7 treated with taxol, adriamycin or UVB as described above were incubated with inhibitors of transcription (actinomycin D, 1 μg/ml) or translation (cycloheximide, 2 mg/ml) before determination of protein expression by Western blotting. […] A replication-deficient adenovirus encoding wild type survivin (pAd-Survivin) or control encoding Green Fluorescence Protein (pAd-GFP) was generated using the pAd-Easy system as described previously (M. Mesri et al. (2001) J. Clin. Invest. 108: 981-90), and propagated in HEK293 cells with purification by CsCl banding. […] Antibodies to p34^cdc2 or bcl-2 were obtained from Pharmingen (San Diego, Calif.) and R&D, respectively. An antibody to β-actin was from Sigma and antibodies to MPM-2 mitotic phosphoproteins was from Upstate Biotechnology (Lake Placid, N.Y.).
(§2) In some experiments, total RNA was extracted from MCF-7 cells at various time intervals after adriamycin treatment, and hybridized with 32 P-labeled survivin cDNA as described previously. Radioactive bands were detected by autoradiography. […] In other experiments, samples were transferred to nylon membranes and analyzed by Western blotting with antibodies to p34^cdc2 (1 μg/ml), survivin (2 μg/ml), or survivinT34* (5 μg/ml).

[2] = system: p34^cdc2 kinase activity (MPM-2 epitope) in HeLa cells; test: MPM-2 mitotic phosphoepitope expression (p34^cdc2 kinase activity) in HeLa cells; settings: HeLa
MCF-7 cells = test: Apoptosis by DNA content analysis and flow cytometry in MCF-7 cells; settings: taxol 2 μM, adriamycin 100 nM, cis-platin 3 μM (Example 7)
Method: Cervical carcinoma HeLa (functionally inactivated p53) cells or breast carcinoma MCF-7 (wild type p53) cells were plated at 50-60% confluency in C-6 wells. […]
After 4, 8, 16, and 32 hours of incubation, without removing taxol from the wells, purvalanol A was added at three increasing concentrations, 1, 10 and 20 uM (FIG. 1). A control was performed with addition of purvalanol A at the 0-h time point.
The cell populations were harvested at increasing time intervals from the 0-h time point or corresponding to the addition of purvalanol A. Apoptosis was analyzed by DNA content analysis and flow cytometry (DAPI staining).

[3] = system: survivin expression in HeLa cells; test: Survivin expression by Western blotting in HeLa cells
Method: as §1, §2
In other experiments, HeLa cells were treated with taxol (0.2 μM) for 16 h followed by the DNA damaging agent adriamycin (100 nM, Sigma) or the nucleoside analog 5-Fluorouracil (500 μM, Sigma) for 8-32 h at 37° C. […] In some experiments, HeLa cells were transfected by lipofectamine with a minimal survivin promoter construct upstream of a luciferase reporter gene (pLuc-cyc1.2), as described (F. Li et al. (1998) Nature 396: 580-584). Cells were treated with taxol (2 μM) or UVB (50 J/m2), and analyzed for changes in luciferase activity at increasing time intervals (12-36 h) in a luminometer. Luciferase values were normalized to β-galactosidase expression. […] The immune complexes were separated by SDS gel electrophoresis and analyzed with antibodies to survivin or a-survivinT34* by Western blotting.

[4] = system: p34^cdc2 kinase activity (MPM-2 epitope) in MCF-7 cells; test: MPM-2 mitotic phosphoepitope expression (p34^cdc2 kinase activity) in MCF-7 cells; settings: vincristine (FIG. 7)
Method: MPM-2 Mitotic Phosphoepitope Expression: For detection of mitotic phosphoproteins (D. D. Vandre et al. (1989) J. Cell Sci. 94: 245-58), MCF-7 cells (1-2×10^5 cells/60 mm dish) were treated with taxol (2 μM), adriamycin (100 nM), 50 or 300 J/m^2 UVB irradiation and cultured for 0, 8, 16, 24 or 36 h at 37° C. Cells were fixed in 70% ethanol, labeled with MPM-2 antibody (6 μg/ml) followed by addition of goat anti-mouse FITC (Boehringer Mannheim) for 1 h at 22° C. in the presence of 5 μg/ml propidium iodide (PI) containing 50 μg/ml RNase A. Samples were analyzed on a FACScan (Becton Dickinson, Mountain View, Calif.), using CellQuest software.
MPM-2 Mitotic Phosphoepitope Expression: For detection of mitotic phosphoproteins (D. D. Vandre et al. (1989) J. Cell Sci. 94: 245-258), MCF-7 cells (1-2×10^5 cells/60 mm dish) were treated with taxol (0.2 μM), or vincristine (100 nM) for increasing time intervals (8-36 h) at 37° C. Cells were fixed in 70% ethanol, labeled with MPM-2 antibody (6 μg/ml; Upstate Biotechnology, Lake Placid, N.Y.) followed by addition of goat anti-mouse FITC (Boehringer Mannheim) for 1 h at 22° C. in the presence of 5 μg/ml propidium iodide containing 50 μg/ml RNAse A. Samples were analyzed on a FACScan (Becton Dickinson, Mountain View, Calif.), using CellQuest software. Data are expressed as %MPM-2 positive cells in the entire population.

[5] = genistein 25 μM or TNF a 5 ng/ml, 48 h

O=c1[nH]cc(F)c(=O)[nH]1 [5-FU, 5-Fluorouracil]
enhancement of apoptosis vs single agent treatment (HeLa cells; taxol 0.2 μM 16 h then adriamycin 100 nM or 5-Fluorouracil 500 μM): did not result in enhanced apoptosis

COC(=O)C[C@H](NC(=O)[C@H](C)NC(=O)[C@@H](NC(=O)OCc1ccccc1)C(C)C)C(=O)CF [Z-VAD-fink, Z-VAD-fmk] (Cbz-Val-Ala-Asp(OMe)-CH2F)
effect on flavopiridol-induced apoptosis (HeLa cells; preincubation with caspase inhibitor): suppressed flavopiridol-induced apoptosis

Cc1c2oc3c(C)ccc(C(=O)N[C@@H]4C(=O)N[C@H](C(C)C)C(=O)N5CCC[C@H]5C(=O)N(C)CC(=O)N(C)[C@@H](C(C)C)C(=O)O[C@@H]4C)c3nc-2c(C(=O)N[C@@H]2C(=O)N[C@H](C(C)C)C(=O)N3CCC[C@H]3C(=O)N(C)CC(=O)N(C)[C@@H](C(C)C)C(=O)O[C@@H]2C)c(N)c1=O [actinomycin D] (I: T[dV]P[Sar][NMeV] / II: T[dV]P[Sar][NMeV]; ester I:1-I:C, II:1-II:C; linker I:N-II:N via Actinocin(9to1))
effect on the increase in survivin expression mediated by adriamycin, taxol or 50 J/m^2 UVB [1]: significantly inhibited the increase in survivin expression

O=C1Cc2c([nH]c3ccc([N+](=O)[O-])cc23)-c2ccccc2N1 [alsterpaullone]
MPM-2 mitotic phosphoepitope expression ([2]; taxol 0.2 μM 16 h then Cdk inhibitor for 16 h (Purvalanol A 10 μM, alsterpaullone 20 μM, flavopiridol 250 nM, olomoucine 400 μM)): partially inhibited MPM-2 expression | MPM-2 mitotic phosphoepitope expression ([2]; taxol 0.2 μM 16 h then Cdk inhibitor for 32 h): suppressed mitotic phosphoprotein expression

N.N.[Cl][Pt][Cl] [cis-platin]
effect on survivin levels ([1]; cis-platin 3 μM): did not affect survivin levels | increased expression of survivin, compared with taxol ([1]; cisplatin 3 μM): less effective | apoptosis (MCF-7 cells): negligible apoptosis | cell cycle arrest (MCF-7 cells): G2/M arrest

C[C@@H]1C[C@@H]([C@H](O)CC2CC(=O)NC(=O)C2)C(=O)[C@@H](C)C1 [cycloheximide]
effect on the increase in survivin expression mediated by adriamycin, taxol or 50 J/m^2 UVB [1]: significantly inhibited the increase in survivin expression

O=c1c(-c2ccc(O)cc2)coc2cc(O)cc(O)c12 [genistein]
survivin expression [3, 5]: did not affect survivin expression

CC[C@]1(O)C[C@H]2CN(CCc3c([nH]c4ccccc34)[C@@](C(=O)OC)(c3cc4c(cc3OC)N(C=O)[C@H]3[C@@](O)(C(=O)OC)[C@H](OC(C)=O)[C@]5(CC)C=CCN6CC[C@]43[C@@H]65)C2)C1 [vincristine]
cell cycle arrest (HeLa cells; vincristine 100 nM): sustained mitotic (prometaphase) arrest | p34^cdc2 kinase activity ([2]; vincristine 100 nM): elevated p34^cdc2 kinase activity | survivin expression ([3]; vincristine 100 nM): increased survivin expression | cdc2 kinase activity [4]: induces cdc2 kinase activity

TNF a
survivin expression [3, 5]: did not affect survivin expression
